According to patent US7772209B2, “Antifolate combination therapies” (Eli Lilly and Company, priority 2000, dated 2010):

Tests used:
[1] = test system: human MX-1 breast carcinoma; test: Tumor growth delay in human MX-1 breast carcinoma xenograft in female nude mice; assay type: in vivo
Method: To assess the effect of a methylmalonic acid lowering agent, alone or in combination with folic acid on the antitumor efficacy of an antifolate in a human tumor xenograft model, female nude mice bearing human MX-1 breast carcinoma were treated with ALIMTA alone or along with super-physiologic doses of folic acid or vitamin B12 (cobalamin).
(§1) The animals were maintained on sterilized standard lab chow ad libitum and sterilized water ad libitum. The human MX-1 tumor cells (5×10^6) obtained from donor tumors were implanted subcutaneously in a thigh of female nude mice 8- to 10-weeks old. Beginning on day 7 post tumor cell implantation, the animals were treated with ALIMTA (100 mg/kg or 150 mg/kg) once daily on days 7 through 11 and 14 through 18 by intraperitoneal injection alone or along with folic acid (6 mg/kg or 60 mg/kg) and/or vitamin B12 (165 mg/kg) by intraperitoneal injection on the same schedule.
(§2) Tumor response was monitored by tumor volume measurements twice weekly over the course of the experiment. Toxicity was monitored by body weight measurements made at the same time as the tumor volume measurements. Tumor growth delay was the difference in days for the treated and the controls tumors to reach 1000 mm^3.

[2] = grade 3/4 toxic events, N = 246, not supplemented
Method: One to two weeks prior to administration of ALIMTA urine is collected and blood is drawn from a human subject; and vitamin metabolite levels, methylmalonic acid and homocysteine, are determined. Homocysteine levels are determined in blood by a fluorescent polarization immunoassay kit manufactured by Abbot Laboratories. Methylmalonic acid levels are determined by urine levels using a 24 hour urine collection kit available from Biolab Medical Unit (a United Kingdom company). Additionally urine and blood may be collected one week prior to administration of ALIMTA (after at least 5 days of folic acid supplementation and at least 1 week vitamin B12 supplementation), and up to 4 days prior to every cycle.
For purposes of this study, patients should take oral folic acid daily beginning approximately 1 to 3 weeks before treatment with ALIMTA plus cisplatin or cisplatin alone and continuing daily until discontinuation from study therapy.
Vitamin B12 will be obtained and administered as a 1000 μg intramuscular injection. A vitamin B12 injection must be administered approximately 1 to 3 weeks before treatment with ALIMTA and should be repeated approximately every 9 weeks until the patient discontinues from study therapy.
Folic acid supplementation, 350-600 μg or equivalent should be taken orally daily beginning approximately 1 to 3 weeks prior to the first dose of MTA plus cisplatin and continue daily until the patient discontinues from study therapy. A vitamin B12 injection, 1000 μg, must be given intramuscularly approximately 1 to 3 weeks prior to the first dose of ALIMTA and should be repeated approximately every 9 weeks until the patient discontinues from study therapy.
The data to be compared are: • 1) Patient numbers and baseline demographic data for those supplemented from baseline. • 2) Homocysteine and methylmalonic acid levels, levels at baseline, prior to first dose, prior to second dose, and prior to each therapy cycle depending of the type of cancer under study. • 3) Grade 3 and 4 hematologic toxicity in these fully supplemented patients. • 4) Grade 3 and 4 nonhematologic toxicity in these fully supplemented patients.
Cyanocobalamin is used as the methylmalonic acid lowering agent in these studies.

[3] = Body weight as general measure of toxicity in MX-1 tumor-bearing nude mice
Method: as §1, §2
Body weight was used as a general measure of toxicity for each of the treatment regimens. The body weight loss pattern reflected the treatment regimens with weight decrease during the treatment times of days 7 through 11 and 14 through 18 with some weight recovery during the intervening two days. The weight loss due to ALITMA was dose dependent but overall minor (3%).

[4] = Clinical response to chemotherapy in chemonaive patients; assay type: in vivo, human; conditions: responders out of group size
Description: Additionally, sixty-two chemonaive patients requiring chemotherapeutic treatment were divided into two groups.

Nc1nc2ncc(CNc3ccc(C(=O)N[C@@H](CCC(=O)O)C(=O)O)cc3)nc2c(=O)[nH]1 [Folic acid, folic acid]
Tumor growth delay ([1]; folic acid 6 mg/kg ip alone, same schedule): 7 days
Tumor growth delay ([1]; folic acid 60 mg/kg ip alone, same schedule): 12 days

Nc1nc2[nH]cc(CCc3ccc(C(=O)N[C@@H](CCC(=O)O)C(=O)O)cc3)c2c(=O)[nH]1 [ALIMTA, pemetrexed disodium]
Percent of occurrences prior to B12/folic acid treatment: Diarrhea [2]: 6%
Percent of occurrences prior to B12/folic acid treatment: Hematologic Toxicity/Non-Hematologic Toxicity [2]: 37%
Percent of occurrences prior to B12/folic acid treatment: Mucositis [2]: 5%
Percent of occurrences prior to B12/folic acid treatment: Neutropenia [2]: 32%
Percent of occurrences prior to B12/folic acid treatment: Neutropenia and Diarrhea [2]: 3%
Percent of occurrences prior to B12/folic acid treatment: Neutropenia and Infection [2]: 2%
Percent of occurrences prior to B12/folic acid treatment: Neutropenia and Mucositis [2]: 3%
Tumor growth delay ([1]; ALIMTA 100 mg/kg ip once daily days 7-11 and 14-18, alone, time to reach 1000 mm^3 vs controls): 17 days
Tumor growth delay ([1]; ALIMTA 150 mg/kg ip once daily days 7-11 and 14-18, alone): 21 days
Body weight loss ([3]; mouse, in vivo): 3%
Patients who responded to the chemotherapy [4]: 1 out of 17

vitamin B12
Tumor growth delay ([1]; vitamin B12 165 mg/kg ip alone, same schedule): 12 days
Body weight change ([3]; vitamin B12 administration): did not prevent weight gain
